Reference: ChEMBL document CHEMBL3886786, “1,3 substituted azetidine PDE10 inhibitors” (2016)

Target: cAMP and cAMP-inhibited cGMP 3',5'-cyclic phosphodiesterase 10A (Homo sapiens, UniProt Q9Y233)
Assay: Fluorescence Polarization Assay: The fluorescence polarization assay for cyclic nucleotide phosphodiesterases was performed using an IMAP® FP kit supplied by Molecular Devices, Sunnyvale, Calif. (product # R8139). IMAP® technology has been applied previously to phosphodiesterase assays (Huang, W., et al., J. Biomol Screen, 2002, 7: 215). Assays were performed at room temperature in 384-well microtiter plates with an incubation volume of 20.2 μL. Solutions of test compounds were prepared in DMSO and serially diluted with DMSO to yield 8 μL of each of 10 solutions differing by 3-fold in concentration, at 32 serial dilutions per plate. 100% inhibition is determined using a known PDE10 inhibitor, which can be any compound that is present at 5,000 times its Ki value in the assay described as follows, such as papaverine (see Siuciak, et al. Neuropharmacology (2006) 51:386-396; Becker, et al. Behav Brain Res (2008) 186(2):155-60; Threlfell, et al., J Pharmacol Exp Ther (2009) 328(3):785-795), 2-{4-[pyridin-4-yl-1-(2,2,2-trifluoroethyl)-1H-pyrazol-3-yl]phenoxymethyl}quinoline succinic acid or 2-[4-(1-methyl-4-pyridin-4-yl-1H-pyrazol-3-yl)-phenoxymethyl]quinoline succinic acid (see Schmidt, et al. J Pharmacol Exp Ther (2008) 325:681-690; Threlfell, et al., J Pharmacol Exp Ther (2009) 328(3): 785-795). 0% of inhibition is determined by using DMSO (1% final concentrations). […]

Chain of cAMP and cAMP-inhibited cGMP 3',5'-cyclic phosphodiesterase 10A (Q9Y233 whole entry): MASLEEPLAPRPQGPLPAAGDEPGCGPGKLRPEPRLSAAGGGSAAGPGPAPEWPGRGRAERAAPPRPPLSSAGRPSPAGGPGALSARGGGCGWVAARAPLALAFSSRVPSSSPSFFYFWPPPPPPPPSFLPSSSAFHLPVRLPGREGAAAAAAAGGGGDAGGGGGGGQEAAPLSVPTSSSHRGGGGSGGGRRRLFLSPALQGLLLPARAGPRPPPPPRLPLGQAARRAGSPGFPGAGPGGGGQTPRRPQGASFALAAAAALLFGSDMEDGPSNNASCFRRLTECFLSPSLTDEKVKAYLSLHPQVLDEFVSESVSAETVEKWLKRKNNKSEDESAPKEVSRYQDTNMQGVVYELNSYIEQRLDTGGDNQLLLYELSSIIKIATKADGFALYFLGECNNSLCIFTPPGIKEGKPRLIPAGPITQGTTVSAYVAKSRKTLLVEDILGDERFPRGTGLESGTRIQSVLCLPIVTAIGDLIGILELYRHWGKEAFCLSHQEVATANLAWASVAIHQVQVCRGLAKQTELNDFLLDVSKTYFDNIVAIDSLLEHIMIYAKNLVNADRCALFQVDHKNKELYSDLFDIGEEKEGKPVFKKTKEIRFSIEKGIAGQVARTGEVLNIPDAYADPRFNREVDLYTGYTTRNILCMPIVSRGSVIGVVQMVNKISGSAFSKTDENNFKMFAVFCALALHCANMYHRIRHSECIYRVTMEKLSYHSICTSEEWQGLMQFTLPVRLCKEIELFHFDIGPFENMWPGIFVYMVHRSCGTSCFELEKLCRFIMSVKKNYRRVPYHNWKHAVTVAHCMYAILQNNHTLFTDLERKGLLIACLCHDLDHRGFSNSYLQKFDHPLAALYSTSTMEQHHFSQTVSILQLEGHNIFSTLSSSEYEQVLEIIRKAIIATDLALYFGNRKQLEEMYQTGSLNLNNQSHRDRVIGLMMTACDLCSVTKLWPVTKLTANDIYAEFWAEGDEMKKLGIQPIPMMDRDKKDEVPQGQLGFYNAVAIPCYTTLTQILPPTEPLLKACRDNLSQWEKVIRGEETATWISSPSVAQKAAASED

Ki: 2.2 nM
Compound: Cc1nc(N2CC(c3nc4ccccc4n3C)C2)cc(-n2nc(C)nc2C2CCOCC2)n1
